According to US9540343B2 (Gilead Sciences, Inc., priority 2011, dated 2017):

Assays:
HIV-IIIb = assay: Test A: Antiviral assay in MT4 cells; format: cell-based, HIV-1; details: Human immunodeficiency virus 1, IIIB, MT4, 120 h, read-out: % inhibition at 2 μM, percent inhibition of virus-induced cell killing, from dose response curve at 2 uM drug; MT-4 cells infected with HIV-IIIb, 5 days, CellTiter-Glo
in vitro = details: human, uninfected MT-4 cells, CC50 (nM), same protocol as Test A, CellTiter-Glo
Description: For the antiviral assay, 40 μL of 1× test concentration of 3-fold serially diluted compound in culture medium with 10% FBS was added to each well of a 384-well plate (10 concentrations) in quadruplicate. MT-4 cells were next mixed with HIV-IIIb at an m.o.i of 0.003 for 1 hour, after which time 35 μL of virus/cell mixture (2000 cells) was immediately added to each well containing 40 μL of diluted compound. The plates were then incubated at 37° C. for 5 days. After 5 days of incubation, 25 μl of 2× concentrated CellTiter-Glo™ Reagent (catalog #G7571, Promega Biosciences, Inc., Madison, Wis.) was added to each well containing MT-4 cells. Cell lysis was carried out by incubating at room temperature for 10 min and then chemiluminescence was read.
Test B: Cytotoxicity Assay
Compound cytotoxicity and the corresponding CC50 values was determined using the same protocol as described in the antiviral assay (Test A) except that uninfected cells were used.

| SMILES | inhibition at 2 µM (HIV-IIIb) [%] | CC50 at 5 days (in vitro) [nM] |
| --- | --- | --- |
| NS(=O)(=O)c1cccc(-c2cccnc2[C@H](Cc2cc(F)cc(F)c2)NC(=O)Cc2c[nH]c3ccc(O)cc23)c1 [Example 44, (S)—N-(2-(3,5-difluorophenyl)-1-(3-(3-sulfamoylphenyl)pyridin-2-yl)ethyl)-2-(5-hydroxy-1H-indol-3-yl)acetamide] | 96 | > 52500 |
| CNC(=O)c1ccc(-c2cccnc2[C@H](Cc2cc(F)cc(F)c2)NC(=O)Cc2c[nH]c3ccc(O)cc23)cc1 [Example 45, (S)-4-(2-(2-(3,5-difluorophenyl)-1-(2-(5-hydroxy-1H-indol-3-yl)acetamido)ethyl)pyridin-3-yl)-N-methylbenzamide] | 32 | > 53000 |
| CNC(=O)c1cccc(-c2cccnc2[C@H](Cc2cc(F)cc(F)c2)NC(=O)Cc2c[nH]c3ccc(O)cc23)c1 [Example 46, (S)-3-(2-(2-(3,5-difluorophenyl)-1-(2-(5-hydroxy-1H-indol-3-yl)acetamido)ethyl)pyridin-3-yl)-N-methylbenzamide] | 87 | > 53000 |
| CN(C)C(=O)c1ccc(-c2cccnc2[C@H](Cc2cc(F)cc(F)c2)NC(=O)Cc2c[nH]c3ccc(O)cc23)cc1 [Example 47, (S)-4-(2-(2-(3,5-difluorophenyl)-1-(2-(5-hydroxy-1H-indol-3-yl)acetamido)ethyl)pyridin-3-yl)-N,N-dimethylbenzamide] | 59 | > 53000 |
| CN(C)C(=O)c1cccc(-c2cccnc2[C@H](Cc2cc(F)cc(F)c2)NC(=O)Cc2c[nH]c3ccc(O)cc23)c1 [Example 48, (S)-3-(2-(2-(3,5-difluorophenyl)-1-(2-(5-hydroxy-1H-indol-3-yl)acetamido)ethyl)pyridin-3-yl)-N,N-dimethylbenzamide] | 74 | > 53000 |
| O=C(Cc1c[nH]c2ccc(O)cc12)N[C@@H](Cc1cc(F)cc(F)c1)c1ncccc1-c1cccc(-c2nnn[nH]2)c1 [Example 49] | 0 | 562 |
| NC(=O)c1cccc(-c2cccnc2[C@H](Cc2cc(F)cc(F)c2)NC(=O)Cc2c[nH]c3ccc(=O)[nH]c23)c1 [Example 51, (S)-3-(2-(2-(3,5-difluorophenyl)-1-(2-(5-oxo-4,5-dihydro-1H-pyrrolo[3,2-b]pyridin-3-yl)acetamido)ethyl)pyridin-3-yl)benzamide] | 52 | > 53000 |
| CC1CCCc2c(C(F)(F)F)nn(CC(=O)N[C@@H](Cc3cc(F)cc(F)c3)c3ncccc3-c3cccc(C(N)=O)c3)c21 (stereo partly drawn) [Example 52, 3-(2-((1S)-2-(3,5-difluorophenyl)-1-(2-(7-methyl-3-(trifluoromethyl)-4,5,6,7-tetrahydro-1H-indazol-1-yl)acetamido)ethyl)pyridin-3-yl)benzamide] | 92 | 13300 |
| O=C(Cc1c[nH]c2ccc(O)cc12)N[C@@H](Cc1cc(F)cc(F)c1)c1ncccc1C#CC1CC1 [Example 53, (S)—N-(1-(3-(cyclopropylethynyl)pyridin-2-yl)-2-(3,5-difluorophenyl)ethyl)-2-(5-hydroxy-1H-indol-3-yl)acetamide] | 33 | 28300 |
| NC(=O)c1cc(-c2cccnc2[C@H](Cc2cc(F)cc(F)c2)NC(=O)Cc2c[nH]c3ccc(C(F)(F)F)cc23)ccc1F [Example 54G, (S)-5-(2-(2-(3,5-difluorophenyl)-1-(2-(5-(trifluoromethyl)-1H-indol-3-yl)acetamido)ethyl)pyridin-3-yl)-2-fluorobenzamide] | 111 | 10300 |
| NC(=O)c1cc(-c2cccnc2[C@H](Cc2cc(F)cc(F)c2)NC(=O)Cc2c[nH]c3ccc(F)cc23)ccc1F [Example 55F, (S)-5-(2-(2-(3,5-difluorophenyl)-1-(2-(5-fluoro-1H-indol-3-yl)acetamido)ethyl)pyridin-3-yl)-2-fluorobenzamide] | 101 | 21600 |
| NC(=O)c1cc(-c2cccnc2[C@H](Cc2cc(F)cc(F)c2)NC(=O)Cn2ccc3ccc4ccccc4c32)ccc1F [Example 56B, (S)-5-(2-(1-(2-(1H-benzo[g]indol-1-yl)acetamido)-2-(3,5-difluorophenyl)ethyl)pyridin-3-yl)-2-fluorobenzamide] | 4 | 18900 |
| CS(=O)(=O)c1cccc(-c2cccnc2[C@H](Cc2cc(F)cc(F)c2)NC(=O)Cn2nc(C(F)(F)F)c3c2CCCC3)c1 [Example 57B, (S)—N-(2-(3,5-difluorophenyl)-1-(3-(3-(methylsulfonyl)phenyl)pyridin-2-yl)ethyl)-2-(3-(trifluoromethyl)-4,5,6,7-tetrahydro-1H-indazol-1-yl)acetamide] | 98 | 13300 |
| CCc1c(Br)c(C(F)(F)F)nn1CC(=O)N[C@@H](Cc1cc(F)cc(F)c1)c1ncccc1-c1ccc(F)c(C(N)=O)c1 [Example 58D, (S)-5-(2-(1-(2-(4-bromo-5-ethyl-3-(trifluoromethyl)-1H-pyrazol-1-yl)acetamido)-2-(3,5-difluorophenyl)ethyl)pyridin-3-yl)-2-fluorobenzamide] | 14 | 10000 |
| Cc1cc(C)c2c(c1)NC(=O)C2CC(=O)N[C@@H](Cc1cccc(F)c1)c1ncccc1-c1ccc(F)c(C(N)=O)c1 (stereo partly drawn) [Example 59E, 5-(2-((1S)-1-(2-(4,6-dimethyl-2-oxoindolin-3-yl)acetamido)-2-(3-fluorophenyl)ethyl)pyridin-3-yl)-2-fluorobenzamide] | 75 | 45100 |
| O=C(Cn1nc(C(F)(F)F)cc1C1CC1)N[C@@H](Cc1cc(F)cc(F)c1)c1ncccc1-c1cnc2[nH]ccc2c1 [Example 61F, (S)—N-(1-(3-(1H-pyrrolo[2,3-b]pyridin-5-yl)pyridin-2-yl)-2-(3,5-difluorophenyl)ethyl)-2-(5-cyclopropyl-3-(trifluoromethyl)-1H-pyrazol-1-yl)acetamide] | 74 | 17900 |
| O=C(Cn1nc(C(F)(F)F)c2c1CCCC2)N[C@@H](Cc1cc(F)cc(F)c1)c1ncccc1-c1cccc(C(=O)NC2CC2)c1 [Example 62, (S)—N-cyclopropyl-3-(2-(2-(3,5-difluorophenyl)-1-(2-(3-(trifluoromethyl)-4,5,6,7-tetrahydro-1H-indazol-1-yl)acetamido)ethyl)pyridin-3-yl)benzamide] | 80 | 9980 |
| CNC(=O)c1cc(F)cc(-c2cccnc2[C@H](Cc2cc(F)cc(F)c2)NC(=O)Cc2c[nH]c3ccc(F)cc23)c1 [Example 63, (S)-3-(2-(2-(3,5-difluorophenyl)-1-(2-(5-fluoro-1H-indol-3-yl)acetamido)ethyl)pyridin-3-yl)-5-fluoro-N-methylbenzamide] | 22 | 14800 |
| COc1ccc(-c2cccnc2[C@H](Cc2cc(F)cc(F)c2)NC(=O)Cc2c[nH]c3ccc(F)cc23)cn1 [Example 64, (S)—N-(2-(3,5-difluorophenyl)-1-(6′-methoxy-3,3′-bipyridin-2-yl)ethyl)-2-(5-fluoro-1H-indol-3-yl)acetamide] | 88 | 21100 |
